According to US10137122B2, “Kinase inhibitors and methods of use thereof” (priority 2012, dated 2018):
Like-named read-outs stand apart in the source and are kept apart here.

Key:
[1] = M (mouse)
panel of 311 kinases = test: Single point kinome-wide profile (Carna Biosciences); format: biochemical; conditions: for number of kinases inhibited greater than 50% at 10 μM: panel of 311 kinases
Experimental: (§1) Briefly, a selection of compounds was screened against a panel of kinases at a single concentration of 10 μM. […] This was completed utilizing one of two assays depending on the kinase being examined.
(§2) Test compounds were dissolved in and diluted with dimethylsulfoxide (DMSO) to generate a 100× sample solution. These were then diluted to 4× sample solutions in assay buffer to make the final test compound solutions. Reference compounds for assay control were prepared similarly.
(§3) A solution of IMAP binding reagent (IMAP Screening Express kit; Molecular Devices) (60 μL) was added to each well and incubated for 30 minutes.
(§4) A solution of termination buffer (QuickScout Screening assist MSA; Carna Biosciences) (60 μL) was added to each well. The entire reaction mixture was then applied to a LabChip3000 system (Caliper Life Science) and the product and substrate peptide peaks were separated and quantified.

GSK3β [2] = target: T1, GSK3β (Homo sapiens (Human), UniProt P49841); test: biochemical; conditions: read-out: % Inhibition at 10 μM, GSK3β
Experimental: as §1, §2, §3, §4

CDK2/CycE1 = CDK2/CycE1 (Homo sapiens (Human), UniProt P24941); test: Single point inhibition at 10 μM (Carna), CDK2/CycE1; format: biochemical
Experimental: as §1, §2, §3, §4

CDK4 = CDK4 (Homo sapiens (Human), UniProt P11802); test: Single point inhibition at 10 μM (Carna), CDK4; format: biochemical
Experimental: as §1, §2, §3, §4

Erk5 = Erk5 (Homo sapiens (Human), UniProt Q13164); test: Single point inhibition at 10 μM (Carna), Erk5; format: biochemical
Experimental: (§5) Single Point Inhibitory Analysis of Selected Compounds (Carna Biosciences)
as §1, §2, §3, §4

PLK1 = PLK1 (Homo sapiens (Human), UniProt P53350); test: Single point inhibition at 10 μM (Carna), PLK1; format: biochemical
Experimental: as §5, §1, §2, §3, §4

CDK5 = CDK5 (Homo sapiens (Human), UniProt Q00535); test: Single point inhibition at 10 μM (Carna), CDK5; format: biochemical
Experimental: as §5, §1, §2, §3, §4

[3] = system: phospho-Tau (Ser199) in SH-SY5Y cells; test: Tau phosphorylation assay (phospho-Tau Ser199 ELISA); format: cell-based, human; conditions: Homo sapiens
Experimental: Tau Phosphorylation and Total Tau Assay
SH-SY5Y cells were maintained in DMEM supplemented with 10% heat-inactivated FBS and 1% penicillin-streptomycin (Invitrogen) unless otherwise stated. ELISA kits for phospho-Tau (Ser199) and total Tau detection were purchased from Invitrogen (KHB0041, and KHB7041 respectively). Briefly, SH-SY5Y cells were seeded at 50,000 cells/200 μL/well in 96 well plates and after overnight incubation, treated with various doses of chemical compounds at 0.2 μL/well. The next day cells were washed with PBS twice before being lysed in 100 μL Lysis buffer/well. 50 μL of cell lysate of each sample was transferred to an ELISA vial coated with the capture antibody, and the mixture was incubated at room temperature for 2 hours, before the supernatant was aspired, and each vial washed four times. 100 μL of detection antibody was then added to each well, incubated for 1 hour, and then washed four times. […] Data were scaled using the positive and neutral controls and fitted for IC50.
A standard protocol using an immunoassay kit to quantify total Tau protein and phospho-Tau (Ser199) protein in SH-SY5Y human neuroblastoma cells was employed. Human Tau (Total) ELISA kit (#KHB0041) and human phosphor-Tau (Ser199) ELISA kit were purchased from Invitrogen (#KHB7041)
50,000 cells were seeded in 200 μl per well in cell culture media (250,000 cells/ml). Cells were incubated overnight @37° C. Cells were induced with appropriate doses of inhibitors and incubated for approximately 24 hrs @37° C. Cell lysates were harvested by washing cells once with cold PBS and adding 100 μl cold lysis buffer and pipette up and down vigorously. Lysate was transferred to 96 well PCR plate and centrifuged at 4,000 rpm for 20 minutes at 4° C.
Well strips were warmed and inserted into the frame. 100μ of standard diluent buffer were loaded into ZERO wells, and 100 ul of each standard concentrations (both total Tau and pTau) were loaded into wells in duplicate. Samples were loaded to each well that would be analyzed for total Tau, 85 μl standard diluent buffer and 15 μl cell lysate were added. To each well that will be analyzed for pTau (Ser199) 50 μl standard diluent buffer+50 μl cell lysate were added. Plates were tapped gently on the side to mix. Certain wells were left empty for chromogen blank. Plates were covered and incubated for 2 hours at room temperature. Wells were aspirated 4 times (400 μl diluted wash buffer, left for 30 seconds, aspirated all wells; alternatively used automated plate washer and programmed in a 30 second hold between each cycle). 100 μl of detection antibody solution were added to each well except chromogen blanks. Anti-total Tau was added to wells being analyzed for total Tau, anti-pTau (Ser199) was added to wells being analyzed for pTau (Ser199), and plates were tapped gently on the side to mix. Plates were covered and incubated for 1 hour at room temperature, then wells were aspirated and washed 4 times as described above. 100 μl of anti-rabbit IgG HRP working solution (prepared ahead) were added to each well except chromogen blanks, and plates were covered and incubated for 30 minutes at room temperature, then wells were aspirated and washed 4 times as described above. 100 μl of stabilized chromogen were added to each well (the liquid turned blue). Plates were incubates for 30 minutes at room temperature in the dark, then 100 μl of stop solution were added to each well, and plates were tapped gently on the side to mix. Absorbance of each well was read at 450 nm (within 2 hours of adding stop solution).

RSK3 = RSK3 (Homo sapiens (Human), UniProt Q15349); test: Single point inhibition at 10 μM (Carna), RSK3; format: biochemical
Experimental: as §5, §1, §2, §3, §4

BRAF = BRAF (Homo sapiens (Human), UniProt P15056); test: Single point inhibition at 10 μM (Carna), BRAF; format: biochemical
Experimental: as §1, §2, §3, §4

PKR = PKR (Homo sapiens (Human), UniProt P19525); test: Single point inhibition at 10 μM (Carna), PKR; format: biochemical
Experimental: as §5, §1, §2, §3, §4

CK1g3 = CK1g3 (Homo sapiens (Human), UniProt Q9Y6M4); test: Single point inhibition at 10 μM (Carna), CK1g3; format: biochemical
Experimental: as §1, §2, §3, §4

DYKR1B = DYKR1B (Homo sapiens (Human), UniProt Q9Y463); test: Single point inhibition at 10 μM (Carna), DYKR1B; format: biochemical
Experimental: as §1, §2, §3, §4

HIPK4 = HIPK4 (Homo sapiens (Human), UniProt Q8NE63); test: Single point inhibition at 10 μM (Carna), HIPK4; format: biochemical
Experimental: as §5, §1, §2, §3, §4

GSK3α [4] = target: T2, GSK3α (Homo sapiens (Human), UniProt P49840); test: biochemical; conditions: read-out: % Inhibition at 10 μM, GSK3α
Experimental: as §1, §2, §3, §4

MAP2K6 = MAP2K6 (Homo sapiens (Human), UniProt P52564); test: Single point inhibition at 10 μM (Carna), MAP2K6; format: biochemical
Experimental: as §5, §1, §2, §3, §4

CLK1 = CLK1 (Homo sapiens (Human), UniProt P49759); test: Single point inhibition at 10 μM (kinase screen), CLK1; format: biochemical
Experimental: as §1, §2, §3, §4

[5] = system: β-catenin nuclear translocation in U2-OS cells; test: β-Catenin nuclear localization assay; format: cell-based; conditions: Homo sapiens, U2OS, read-out: beta-Catenin translocation EC50
Experimental: β-Catenin Nuclear Localization Assay
U2-OS cells stably expressing two complimentary β-galactosidase fragments (one part on β-Catenin and the other constitutively expressed in the cell nucleus) were maintained in DMEM F12 supplemented with 10% FBS. When β-catenin translocates to the nucleus, the complimentary fragments form a complete β-galactosidase, the amount of which is then quantified by β-galactosidase activity (DiscoveRx). Cells were seeded in a 384-well CulturPlate (Perkin Elmer, Boston, Mass.) with 10,000 per well in 20 μL DMEM F12 containing 10% FCS, 100 U/ml penicillin and 100 μg/mL streptomycin. After overnight incubation at 37° C., cells were stimulated with 100 nL test compound/well and then returned to the incubator for 6 h. Cells were disrupted using 12 μL substrate-containing lysis buffer from the PathHunter Detection Kit in the formulation specified by the supplier (DiscoveRx). Plates were incubated in the dark for 1 h at room temperature before measurement of β-galactosidase activity (luminescence) on an EnVision plate reader (PerkinElmer, Waltham, Mass.).

CDK2 = CDK2 (Homo sapiens (Human), UniProt P24941); test: Single point inhibition at 10 μM (kinase screen), CDK2; format: biochemical
Experimental: as §1, §2, §3, §4

MELK = MELK (Homo sapiens (Human), UniProt Q14680); test: Single point inhibition at 10 μM (Carna), MELK; format: biochemical
Experimental: as §5, §1, §2, §3, §4

CDK2/CycA2 = CDK2/CycA2 (Homo sapiens (Human), UniProt P24941); test: Single point inhibition at 10 μM (Carna), CDK2/CycA2; format: biochemical
Experimental: as §1, §2, §3, §4

CK1g1 = CK1g1 (Homo sapiens (Human), UniProt Q9HCP0); test: Single point inhibition at 10 μM (Carna), CK1g1; format: biochemical
Experimental: as §1, §2, §3, §4

[6] = system: TCF/LEF reporter in HEK293-pBARL cells; test: cells; conditions: Homo sapiens
Experimental: (§6) HEK293-pBARL cells were derived from HEK293 cells and they stably expressed a firefly-luciferase reporter gene driven by a promoter containing 12 copies of TCF/LEF binding sequences. These cells were maintained in DMEM and supplemented with 10% FBS and 1% penicillin-streptomycin (Invitrogen). Reporter gene assays were conducted in anti-biotic free media. […] These cells also contained a renilla-luciferase reporter gene driven by the ubiquitous EF1α promoter as a control. HEK293-pBarl reporter cell lines were seeded into 384-well culture plates (Corning) at 6000 cells/well. 24 hours after plating, cells were treated overnight with relevant compounds and assayed using DualGlo assay kit (Promega). Luminescent intensities were read by EnVision (PerkinElmer, Waltham, Mass.). Firefly luciferase intensity is normalized by renilla luciferase intensity.
(§7) Cells were cultured in 384 well plates to appropriate density (40 μl total plating volume). 24 hours after plating, cells were treated with 100 nl compounds. 24 hours after incubation with compounds (48 hours after plating), assay reagents were prepared by mixing Luciferase Assay solution with Luciferase substrate and Stop & Glo solution to Stop & Glo substrate (extra reagents can be aliquoted and frozen for future use and are stable for at least one freeze/thaw cycle). […] The plate was spun down and 10 minutes were allowed for signal stabilization. Luciferase signal on the Perkin Elmer EnVision using the following parameters: Distance between plate & detector (mm)=0.2; Measurement time(s)=0.1; Glow (CT2) correction factor=0. Once the initial data is secure, a volume of Stop & Glo was added equal to each well equal to the volume of Luciferase reagent added above (If 10 μl Luciferase Reagent was added, 10 μl Stop & Glo was also added). The plate was spun down and 10 minutes were allowed for signal stabilization. The plate was read on the EnVision using the same parameters detailed above.

MLK3 = MLK3 (Homo sapiens (Human), UniProt Q16584); test: Single point inhibition at 10 μM (Carna), MLK3; format: biochemical
Experimental: as §5, §1, §2, §3, §4

[7] = system: amphetamine-induced hyperactivity; test: Amphetamine-induced hyperactivity (AIH) in vivo; conditions: mice, intracerebroventricular, vs vehicle
[8] = system: human iPSC-NPCs with TCF/LEF-luciferase reporter; test: Neurogenesis assay; format: cell-based; conditions: 24-h treatment
Description: See, e.g., Zhao et al., J Biomol Screen. 2012 October; 17(9):1252-63.

CDK9 = CDK9 (Homo sapiens (Human), UniProt P50750); test: Single point inhibition at 10 μM (Carna), CDK9; format: biochemical
Experimental: as §5, §1, §2, §3, §4

[9] = system: TCF/LEF reporter in HEK293-pBARL cells; conditions: read-out: TCF/LEF EC50
Experimental: as §6, §7

PBS stability = format: physicochemical; conditions: 48 hours of incubation, acetonitrile recovery
Experimental: Stability was determined in the presence of PBS pH 7.4 with 0.1% DMSO. Each compound was prepared in duplicate on six separate plates and allowed to equilibrate at room temperature with a 250 rpm orbital shake for 48 hours. One plate was removed at each time point (0, 2, 4, 8, 24, and 48 hours). […] Additionally, to the remaining material at each time point, acetonitrile was added to force dissolution of compound (to test for recovery of compound). An aliquot of this was also analyzed by UPLC-MS.

LIMK1 = LIMK1 (Homo sapiens (Human), UniProt P53667); test: Single point inhibition at 10 μM (Carna), LIMK1; format: biochemical
Experimental: as §1, §2, §3, §4

GSH stability = format: in vitro ADME; conditions: glutathione, 48 hours
Experimental: Stability was determined in the presence of PBS pH […] and 50 μM glutathione with 0.1% DMSO. Each compound was prepared in duplicate on six separate plates and allowed to equilibrate at room temperature with a 250 rpm orbital shake for 48 hours. One plate was removed at each time point (0, 2, 4, 8, 24, and 48 hours). […] Additionally, to the remaining material at each time point, acetonitrile was added to force dissolution of compound (to test for recovery of compound). An aliquot of this was also analyzed by UPLC-MS.

GSK3α [10] = target: T2, GSK3α
Experimental: GSK3β Microfluidic Mobility-Shift Assay
(§8) Reactions were terminated by the addition of 10 mM EDTA. Substrate and product were separated electrophoretically and fluorescence intensity of the substrate and product was determined by Labchip EZ Reader II (Caliper Life Sciences, MA). The kinase activity was measured as percent conversion. The reactions were performed in duplicate for each sample. […] The results were analyzed by Genedata Assay Analyzer. The percent inhibition was plotted against the compound concentration and the IC50 value was determined from the logistic dose-response curve fitting.

GSK3β [11] = target: T1, GSK3β
Experimental: Human GSK3β as a GST fusion expressed in baculoviral system was purchased from BPS Bioscience (San Diego, Calif.). […] Reactions were incubated at room temperature for 60 minutes. 2.5 μL/well of ADP-Glo (Promega, V9103) was added with BioRAPTR, and incubated at room temperature for 40 minutes followed by addition of 5 μL/well of ADP-Glo detection reagent (Promega, V9103) with Combi nL (Thermo, Waltham, Mass.) and incubation at room temperature for 30 minutes. The plates were read on a ViewLux (PerkinElmer, Waltham, Mass.) for luminescence. Data were scaled using the positive and neutral controls and fitted for IC50 as described below.
ADP Glo Assay Protocol (10 μM ATP) in 384-Well Format
100 nL/well compounds were pinned. […] Incubated at room temperature for 60 minutes. Added 20 μL/well of ADP-glo (Promega, V9103) with Combi, and incubated at room temperature for 40 minutes. Added 40 μL/well of ADP-glo (Promega, V9103) with Combi, incubated at room temperature for 30 minutes. Read on Envision for luminescence.

GSK3β [12] = target: T1, GSK3β; remark: listed apart in the source
Experimental: GSK3β Microfluidic Mobility-Shift Assay
as §8

GSK3 = conditions: read-out: GSK3 IC50 of lithium; cited from earlier work

T1 sequence (P49841 whole entry): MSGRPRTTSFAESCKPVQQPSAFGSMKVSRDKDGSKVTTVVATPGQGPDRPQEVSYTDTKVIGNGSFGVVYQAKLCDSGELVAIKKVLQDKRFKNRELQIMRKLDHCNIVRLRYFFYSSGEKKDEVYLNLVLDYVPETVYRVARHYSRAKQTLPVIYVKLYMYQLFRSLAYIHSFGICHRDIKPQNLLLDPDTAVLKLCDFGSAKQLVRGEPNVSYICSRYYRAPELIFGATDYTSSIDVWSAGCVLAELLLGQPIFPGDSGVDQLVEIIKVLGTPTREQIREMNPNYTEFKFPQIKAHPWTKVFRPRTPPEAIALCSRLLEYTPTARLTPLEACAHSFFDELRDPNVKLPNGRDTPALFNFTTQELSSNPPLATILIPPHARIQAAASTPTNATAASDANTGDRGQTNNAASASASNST
T2 sequence (P49840 whole entry): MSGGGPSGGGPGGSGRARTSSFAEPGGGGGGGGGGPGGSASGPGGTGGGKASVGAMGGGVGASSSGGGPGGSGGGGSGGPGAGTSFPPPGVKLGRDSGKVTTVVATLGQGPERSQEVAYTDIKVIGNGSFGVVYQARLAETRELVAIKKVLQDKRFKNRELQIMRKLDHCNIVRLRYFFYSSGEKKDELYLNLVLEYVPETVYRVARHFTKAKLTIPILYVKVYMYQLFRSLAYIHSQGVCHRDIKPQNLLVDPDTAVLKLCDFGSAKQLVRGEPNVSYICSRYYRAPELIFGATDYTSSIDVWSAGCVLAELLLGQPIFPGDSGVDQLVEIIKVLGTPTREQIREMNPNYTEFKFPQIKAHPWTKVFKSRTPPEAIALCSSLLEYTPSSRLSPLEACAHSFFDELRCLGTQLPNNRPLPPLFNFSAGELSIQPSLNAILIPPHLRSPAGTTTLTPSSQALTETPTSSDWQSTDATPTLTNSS
Sequence of RSK3 (Q15349 whole entry): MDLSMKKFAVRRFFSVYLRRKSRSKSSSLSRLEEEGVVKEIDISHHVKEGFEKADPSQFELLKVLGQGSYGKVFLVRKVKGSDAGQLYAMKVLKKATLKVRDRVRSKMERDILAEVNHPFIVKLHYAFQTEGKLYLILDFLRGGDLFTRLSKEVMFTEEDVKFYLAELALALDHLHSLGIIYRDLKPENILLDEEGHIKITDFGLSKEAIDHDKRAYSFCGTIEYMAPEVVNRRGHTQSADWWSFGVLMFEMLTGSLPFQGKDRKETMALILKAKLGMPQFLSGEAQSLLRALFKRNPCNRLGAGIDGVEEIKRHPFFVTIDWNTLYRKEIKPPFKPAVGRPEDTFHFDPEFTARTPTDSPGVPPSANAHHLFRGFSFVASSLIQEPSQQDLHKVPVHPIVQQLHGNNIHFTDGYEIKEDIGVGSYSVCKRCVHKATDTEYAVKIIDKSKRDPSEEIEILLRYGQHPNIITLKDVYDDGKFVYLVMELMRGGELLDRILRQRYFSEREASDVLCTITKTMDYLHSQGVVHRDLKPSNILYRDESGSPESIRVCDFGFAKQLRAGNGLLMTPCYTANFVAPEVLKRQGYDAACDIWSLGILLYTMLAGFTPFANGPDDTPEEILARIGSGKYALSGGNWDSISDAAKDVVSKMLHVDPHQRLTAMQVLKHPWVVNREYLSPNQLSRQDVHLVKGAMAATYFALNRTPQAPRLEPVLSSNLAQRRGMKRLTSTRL
Sequence of CDK5 (Q00535 whole entry): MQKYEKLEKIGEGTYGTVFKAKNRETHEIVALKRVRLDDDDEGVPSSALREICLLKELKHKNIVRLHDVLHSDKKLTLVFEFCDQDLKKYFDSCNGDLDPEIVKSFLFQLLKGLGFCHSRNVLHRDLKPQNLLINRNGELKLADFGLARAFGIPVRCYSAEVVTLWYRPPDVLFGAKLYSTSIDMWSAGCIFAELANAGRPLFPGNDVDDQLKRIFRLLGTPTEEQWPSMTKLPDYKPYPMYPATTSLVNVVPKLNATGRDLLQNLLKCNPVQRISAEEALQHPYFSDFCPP
Sequence of CDK5 (Q15078 99-307 partner): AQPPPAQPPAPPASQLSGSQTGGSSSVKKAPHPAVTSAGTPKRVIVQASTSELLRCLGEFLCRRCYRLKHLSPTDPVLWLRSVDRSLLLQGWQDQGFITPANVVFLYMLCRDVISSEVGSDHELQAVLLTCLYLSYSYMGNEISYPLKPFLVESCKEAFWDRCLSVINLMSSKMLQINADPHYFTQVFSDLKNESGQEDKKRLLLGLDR
Sequence of HIPK4 (Q8NE63 whole entry): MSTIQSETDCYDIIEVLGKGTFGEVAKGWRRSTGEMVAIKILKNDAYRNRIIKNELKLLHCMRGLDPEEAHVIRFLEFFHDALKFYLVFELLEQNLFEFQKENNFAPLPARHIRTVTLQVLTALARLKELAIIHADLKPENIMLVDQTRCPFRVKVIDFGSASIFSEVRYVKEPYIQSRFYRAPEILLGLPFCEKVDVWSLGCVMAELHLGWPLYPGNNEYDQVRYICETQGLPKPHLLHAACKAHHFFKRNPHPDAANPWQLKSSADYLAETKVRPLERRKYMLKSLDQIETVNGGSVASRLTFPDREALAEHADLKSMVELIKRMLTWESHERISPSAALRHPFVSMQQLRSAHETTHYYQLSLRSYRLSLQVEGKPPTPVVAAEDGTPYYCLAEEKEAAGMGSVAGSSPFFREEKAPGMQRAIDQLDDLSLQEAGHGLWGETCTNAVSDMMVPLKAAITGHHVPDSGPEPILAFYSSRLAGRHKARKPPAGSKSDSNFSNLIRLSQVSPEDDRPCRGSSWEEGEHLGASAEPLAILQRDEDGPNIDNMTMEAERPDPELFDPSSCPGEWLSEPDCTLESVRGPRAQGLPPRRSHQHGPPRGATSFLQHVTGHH
Sequence of PKR (P19525 whole entry): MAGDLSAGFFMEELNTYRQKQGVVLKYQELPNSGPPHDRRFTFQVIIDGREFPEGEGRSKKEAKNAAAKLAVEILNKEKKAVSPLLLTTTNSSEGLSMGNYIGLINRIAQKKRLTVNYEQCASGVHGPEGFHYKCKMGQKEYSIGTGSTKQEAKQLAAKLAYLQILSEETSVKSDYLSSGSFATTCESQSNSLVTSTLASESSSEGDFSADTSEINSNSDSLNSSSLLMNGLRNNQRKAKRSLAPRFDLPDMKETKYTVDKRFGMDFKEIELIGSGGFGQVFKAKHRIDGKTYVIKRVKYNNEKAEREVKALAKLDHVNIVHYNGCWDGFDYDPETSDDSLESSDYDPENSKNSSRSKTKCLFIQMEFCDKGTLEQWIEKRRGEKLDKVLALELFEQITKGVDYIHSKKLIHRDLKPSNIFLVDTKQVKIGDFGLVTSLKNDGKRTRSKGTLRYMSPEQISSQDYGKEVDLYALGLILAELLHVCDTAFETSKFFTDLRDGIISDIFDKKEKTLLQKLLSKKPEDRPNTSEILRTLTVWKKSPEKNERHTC
Sequence of BRAF (P15056 whole entry): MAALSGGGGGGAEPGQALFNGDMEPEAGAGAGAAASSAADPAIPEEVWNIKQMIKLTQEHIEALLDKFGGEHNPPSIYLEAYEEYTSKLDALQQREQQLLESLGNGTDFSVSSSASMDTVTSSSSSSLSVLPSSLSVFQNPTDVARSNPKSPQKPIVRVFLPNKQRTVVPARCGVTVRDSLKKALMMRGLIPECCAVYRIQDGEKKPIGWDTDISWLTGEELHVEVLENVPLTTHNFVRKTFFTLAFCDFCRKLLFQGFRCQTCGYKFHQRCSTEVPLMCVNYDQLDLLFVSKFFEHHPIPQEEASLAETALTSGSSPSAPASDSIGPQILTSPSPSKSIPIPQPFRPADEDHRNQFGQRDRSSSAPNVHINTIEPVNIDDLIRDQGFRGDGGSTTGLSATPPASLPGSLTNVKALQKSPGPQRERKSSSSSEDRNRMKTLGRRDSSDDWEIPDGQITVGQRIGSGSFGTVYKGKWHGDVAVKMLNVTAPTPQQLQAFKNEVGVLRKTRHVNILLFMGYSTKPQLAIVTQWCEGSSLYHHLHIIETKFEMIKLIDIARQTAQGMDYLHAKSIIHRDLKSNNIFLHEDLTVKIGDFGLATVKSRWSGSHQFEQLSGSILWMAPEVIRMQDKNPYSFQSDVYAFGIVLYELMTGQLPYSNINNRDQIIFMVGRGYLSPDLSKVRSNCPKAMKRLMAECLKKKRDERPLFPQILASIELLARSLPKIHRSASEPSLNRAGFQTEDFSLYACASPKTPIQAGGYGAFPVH
Sequence of DYKR1B (Q9Y463 whole entry): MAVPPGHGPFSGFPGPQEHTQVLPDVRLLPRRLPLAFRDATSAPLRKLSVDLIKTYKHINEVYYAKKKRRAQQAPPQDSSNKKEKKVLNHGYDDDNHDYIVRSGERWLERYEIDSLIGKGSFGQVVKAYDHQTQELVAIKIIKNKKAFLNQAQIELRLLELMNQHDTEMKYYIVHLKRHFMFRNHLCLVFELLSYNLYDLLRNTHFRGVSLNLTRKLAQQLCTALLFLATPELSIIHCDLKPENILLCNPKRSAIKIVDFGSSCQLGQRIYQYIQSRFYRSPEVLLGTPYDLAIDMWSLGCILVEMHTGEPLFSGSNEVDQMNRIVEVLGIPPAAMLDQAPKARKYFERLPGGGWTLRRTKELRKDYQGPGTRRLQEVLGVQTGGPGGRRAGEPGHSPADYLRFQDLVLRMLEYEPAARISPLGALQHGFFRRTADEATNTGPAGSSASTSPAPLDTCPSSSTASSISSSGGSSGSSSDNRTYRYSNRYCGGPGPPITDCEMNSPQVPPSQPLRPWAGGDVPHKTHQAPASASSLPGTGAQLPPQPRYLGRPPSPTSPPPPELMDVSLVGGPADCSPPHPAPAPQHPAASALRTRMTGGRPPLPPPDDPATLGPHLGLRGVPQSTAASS

| SMILES | Microsomal Stability [1] | number of kinases inhibited greater than 50% at 10 μM (panel of 311 kinases) | inhibition at 10 µM (GSK3β [2]) | inhibition at 10 µM (CDK4) | inhibition at 10 µM (Erk5) | inhibition at 10 µM (PLK1) | inhibition at 10 µM (CDK5) | inhibition at 10 µM (RSK3) | inhibition at 10 µM (BRAF) | inhibition at 10 µM (PKR) | inhibition at 10 µM (CK1g3) | inhibition at 10 µM (DYKR1B) | inhibition at 10 µM (HIPK4) | inhibition at 10 µM (GSK3α [4]) | inhibition at 10 µM (MAP2K6) | EC50 [5] | inhibition at 10 µM (MELK) | inhibition at 10 µM (CK1g1) | inhibition at 10 µM (MLK3) | EC50 [9] | further results |
| --- | --- | --- | --- | --- | --- | --- | --- | --- | --- | --- | --- | --- | --- | --- | --- | --- | --- | --- | --- | --- | --- |
| Cc1c[nH]c(-c2cnc(NCCNc3ccc(C#N)cn3)nc2-c2ccc(Cl)cc2Cl)n1 [CHIR99021, reference compound] | M: 4% | 21 kinases | 99.9% | 65.3% | > 50% | > 50% | > 50% | 53.6% | 53.8% | 57.1% | 70.5% | 70.5% | 55.5% | 99.9% | 65.3% | 10 µM | 53.5% | 85.8% | 52.7% |  | inhibition at 10 µM (CDK2/CycE1): 67.2%; IC50 ([3]; read-out: Phospho-Tau ELISA in SHSY5Y Cells (IC50)): 0.44 µM; inhibition at 10 µM (CLK1): > 50%; inhibition at 10 µM (CDK2): > 50%; inhibition at 10 µM (CDK2/CycA2): 79.3%; EC50 ([6]; HEK293, read-out: TCF/LEF EC50 (μM)): 6 µM |
| COc1ccccc1[C@@H]1C2=C(CC(C)(C)CC2=O)Nc2n[nH]c(C)c21 [Compound 22, 4-(2-methoxyphenyl)-3,7,7-trimethyl-6,7,8,9-tetrahydro-1H-pyrazolo[3,4-b]quinolin-5(4H)-one] |  | 8 kinases |  |  |  |  |  |  |  |  |  |  |  |  |  |  |  |  |  |  | effect on amphetamine-induced hyperactivity, ICV injection [7]: attenuate amphetamine-induced hyperactivity; neurogenesis [8]: promoted neurogenesis |
| COc1ccccc1[C@@H]1C2=C(CC(C)(C)CC2=O)Nc2n[nH]c(C(F)(F)F)c21 [Compound 54, (R)-4-(2-methoxyphenyl)-7,7-dimethyl-3-(trifluoromethyl)-6,7,8,9-tetrahydro-2H-pyrazolo[3,4-b]quinolin-5(4H)-one] | M: 0% |  | 99.9% | 19% | 0.6% | 21.3% | 86.7% | 0.1% | 10.8% | 0.1% | 3.2% | 52.5% | 3.2% | 99.9% | 0.1% | 5 µM | 4.5% | 0.5% | 18.8% | 4.8 µM | inhibition at 10 µM (CDK9): 20.5%; % of the kinome (311 kinases) inhibited (panel of 311 kinases; 10 μM, 311 kinases): 2.6%; EC50 ([3]; read-out: p-Tau Inhibition ELISA EC50 SH-SY5Y): 1.7 µM; PBS stability, % still present (PBS stability): more than 95%; inhibition at 10 µM (LIMK1): 6.7%; GSH stability, % remaining (GSH stability): 99%; EC50 ([6]; HEK293, read-out: TCF/LEF EC50 (μM), HEK293 reporter cells): 5 µM |
| CC1(C)CC(=O)C2=C(C1)Nc1n[nH]c(C(F)(F)F)c1[C@@H]2c1c(F)cccc1F [Compound 59] |  |  |  |  |  |  |  |  |  |  |  |  |  |  |  |  |  |  |  | > 25 µM | IC50 (GSK3α [10]): 0.101 to 1 µM; IC50 (GSK3β [11]): < 0.1 µM; IC50 (GSK3β [12]): < 0.1 µM |
| [Li+] [Li^+] |  |  |  |  |  |  |  |  |  |  |  |  |  |  |  |  |  |  |  |  | IC50 (GSK3): 2000 µM |
